Source: ChEMBL document CHEMBL1149867, “Salinipyrones and pacificanones, mixed-precursor polyketides from the marine actinomycete Salinispora pacifica” (2008)

Test system: Splenocyte
Experiment: Inhibition of IL5 production in mouse splenocyte model of allergic inflammation at 10 ug/ml
Type: functional

In the case of CC[C@@H](O)[C@@H](C)/C=C(C)/C=C/c1oc(=O)c(C)c(O)c1C [SALINIPYRONE A], the inhibition at 10 µg/mL was 50%.
